The values that follow come from EPA's ToxRefDB 2.

Series [1] relates to rat. The note with it: Developmental neurotoxicity study; long evans; Inhalation; Whole-Body; dose end: 160 PND; group: cannot be grouped; systemic / in life observation / body weight / body weight + developmental / developmental landmark / vaginal opening / vaginal opening + ….
In series [2] the test system is rat. Particulars: Developmental neurotoxicity study, wistar, Oral, Water, dose end: 45 PND, group: cannot be grouped.
A further series concerns dog. Particulars: Carcinogenicity; beagle; Oral; Capsule; dose end: 109 month; group: systemic; systemic / pathology microscopic / urinary bladder / carcinoma + systemic / clinical chemistry / alanine aminotransferase (alt/sgpt) / ….
The test system of series [3] is rat. The note with it: Combined chronic toxicity/carcinogenicity; fischer; Oral; Water; dose end: 103 week; group: systemic; systemic / clinical chemistry / flouride / fluoride + systemic / in life observation / clinical signs / tooth-mottling + systemic / in life ….
Series [4] concerns mouse. Particulars: Subchronic oral toxicity in rodents, B6C3F1, Water, dose end: 6 month, group: systemic.
For a further series, the system named is rabbit. Particulars: Prenatal developmental toxicity study; new zealand white; Oral; Water; dose end: 19 GD; group: maternal; systemic / in life observation / body weight / body weight gain + systemic / in life observation / food consumption / food consumption + ….
For series [5], the system named is rat. The note with it: Prenatal developmental toxicity study; other; Oral; Water; dose end: 15 GD; group: maternal; systemic / in life observation / body weight / body weight gain + systemic / in life observation / water consumption / water consumption.
Series [6] deals with mouse. Particulars: Combined chronic toxicity/carcinogenicity; b6c3f1; Oral; Water; dose end: 103 week; group: systemic; systemic / clinical chemistry / flouride / fluoride + systemic / in life observation / clinical signs / tooth-attrition + systemic / in life….
Series [7] concerns rat. The note with it: Subchronic oral toxicity in rodents, fischer, Water, dose end: 6 month, group: systemic.
The subject of series [8] is rat. The note with it: Multigenerational reproductive toxicity study, CD CRL:CD-BR, Oral, Water, dose end: 2 generation.
In series [9] the test system is rat. The note with it: Prenatal developmental toxicity study, other, Oral, Water, dose end: 20 GD, group: maternal.
For series [10], the system named is rat. The note with it: Sub-acute repeat dose toxicity, fischer, Oral, Water, dose end: 14 day, group: systemic.
Series [11] deals with rat. The note with it: Carcinogenicity, sprague dawley, Oral, Feed, dose end: 24 month, group: systemic.
In series [12] the test system is mouse. The note with it: Sub-acute repeat dose toxicity, b6c3f1, Oral, Water, dose end: 14 day, group: systemic.
The mark [13] stands for this setting: systemic / clinical chemistry / dopamine / dopamine + systemic / clinical chemistry / protein / protein + systemic / in life observation / ….
Setting [14] is: systemic / pathology gross / stomach / hemorrhage + systemic / pathology gross / stomach / ulcer + systemic / pathology microscopic / ….
Setting [15] is: group: offspring, systemic / in life observation / clinical signs / tooth nos.
[16] abbreviates: group: parental, systemic / in life observation / water consumption / water consumption + systemic / pathology microscopic / stomach / hyperkeratosis + ….
[17] abbreviates: systemic / in life observation / body weight / body weight gain + systemic / in life observation / food consumption / food consumption + ….
[18] abbreviates: systemic / in life observation / body weight / body weight.
[19] abbreviates: systemic / in life observation / body weight / body weight + systemic / in life observation / clinical signs / dehydration + systemic / in ….
Where [20] appears, read: systemic / in life observation / clinical signs / tooth-dysplasia + systemic / in life observation / clinical signs / tooth-discolored + ….
The mark [21] stands for this setting: systemic / organ weight / [other] / absolute + systemic / organ weight / [other] / relative to body weight + systemic / organ weight / ….

For `CO` [Methanol], in the series with rat [1], the LEL was 6110 mg/kg/day, the LOAEL was more than 6110 mg/kg/day, the NEL was less than 6110 mg/kg/day and the NOAEL is not below 6110 mg/kg/day. In addition, in the series with rat [2] (setting [13]), the LOAEL was more than 2000 mg/kg/day, the NEL was determined as 500 mg/kg/day and the NOAEL is not below 2000 mg/kg/day. In addition, the LEL with rat [2] (systemic / clinical chemistry / protein / protein + systemic / clinical chemistry / dopamine / dopamine + systemic / in life observation / …) came to 1000 mg/kg/day.
Consider `Nc1ccc2ccccc2c1` [2-Naphthylamine], for which, in the series with dog, the LEL came out at 18.4 mg/kg/day, the LOAEL was more than 18.4 mg/kg/day, the NEL was less than 18.4 mg/kg/day and the NOAEL is not below 18.4 mg/kg/day.
As for `[F-].[Na+]` [Sodium fluoride], the LEL in the series on rat [3] came to 1.3 mg/kg/day; in the series with mouse [4] (systemic / pathology microscopic / bone / proliferation), 7.5 mg/kg/day; in the series on rabbit it was 29 mg/kg/day; in the series on rat [5], 27 mg/kg/day; with mouse [6] it was 2.4 mg/kg/day; in the series with rat [7] (systemic / pathology microscopic / stomach / hyperplasia) it was 5 mg/kg/day. For the same compound, the LEL with rat [8] (setting [15]) amounted to 12.5 mg/kg/day; with rat [8] (group: parental, systemic / pathology microscopic / stomach / hyperkeratosis + systemic / in life observation / water consumption / water consumption), 5 mg/kg/day; with rat [9] (systemic / in life observation / water consumption / water consumption) it was 24.7 mg/kg/day; in the series with rat [10] (setting [19]), 20 mg/kg/day; in the series on rat [11] (setting [20]) it was 4 mg/kg/day; in the series on mouse [12] (systemic / in life observation / body weight / body weight + systemic / in life observation / water consumption / water consumption + …), 120 mg/kg/day. For the same compound, the LOAEL was 1.3 mg/kg/day with rat [3]; 30 mg/kg/day with mouse [4] (systemic / in life observation / body weight / body weight gain); more than 29 mg/kg/day with rabbit; more than 27 mg/kg/day with rat [5]; 2.4 mg/kg/day in the series on mouse [6]; 15 mg/kg/day in the series with rat [7] (setting [14]). The LOAEL in the series on rat [8] (setting [15]) was more than 12.5 mg/kg/day; in the series on rat [8] (setting [16]), more than 12.5 mg/kg/day; in the series with rat [9] (setting [17]) it was more than 25.1 mg/kg/day; in the series with rat [10] (setting [18]) it was 5 mg/kg/day; in the series on rat [11] (setting [21]), more than 25 mg/kg/day; with mouse [12] (setting [18]), 7.5 mg/kg/day. For the same compound, the NEL in the series with rat [3] was less than 1.3 mg/kg/day; with mouse [4] (systemic / in life observation / body weight / body weight gain + systemic / pathology microscopic / bone / proliferation + systemic / in …), 1.5 mg/kg/day; with rabbit, 18 mg/kg/day; with rat [5], 18 mg/kg/day; with mouse [6], less than 2.4 mg/kg/day; in the series on rat [7] (setting [14]), 1.5 mg/kg/day. Further, the NEL is 8.75 mg/kg/day in the series on rat [8] (setting [15]); 1.25 mg/kg/day with rat [8] (setting [16]); 15.6 mg/kg/day in the series on rat [9] (setting [17]); 10 mg/kg/day in the series on rat [10] (setting [19]); less than 4 mg/kg/day in the series on rat [11] (setting [20]); 60 mg/kg/day with mouse [12] (systemic / in life observation / body weight / body weight + systemic / in life observation / water consumption / water consumption). In addition, the NOAEL is less than 1.3 mg/kg/day with rat [3]; 15 mg/kg/day in the series with mouse [4] (systemic / in life observation / body weight / body weight gain + systemic / in life observation / clinical signs / [other] + systemic / in …); not below 29 mg/kg/day in the series on rabbit; not below 27 mg/kg/day in the series with rat [5]; less than 2.4 mg/kg/day in the series on mouse [6]; 5 mg/kg/day with rat [7] (setting [14]). In addition, the NOAEL was not below 12.5 mg/kg/day in the series with rat [8] (setting [15]); not below 12.5 mg/kg/day in the series on rat [8] (setting [16]); not below 25.1 mg/kg/day in the series on rat [9] (setting [17]); 2.5 mg/kg/day in the series on rat [10] (setting [19]); not below 25 mg/kg/day in the series on rat [11] (setting [21]); less than 7.5 mg/kg/day in the series on mouse [12] (setting [18]).
